Legend:
Assay in all cases: viability relative to DMSO control (fraction); higher = less drug effect (more viable cells)
Settings in all cases: 48 h
[1] = system: primary ALL patient cells (S048)
How it was run: (§1)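 Primary mononuclear tumour cells (Ficoll-isolated from blood or bone marrow, or processed lymph node; fresh or cryopreserved) were plated at 4 × 10^4 cells per well in 384-well plates with pre-plated compounds at five concentrations, one well each. Medium was RPMI-1640 with penicillin/streptomycin, L-glutamine and human serum, at 37 °C and 5% CO2 for 48 h. Viability was read as CellTiter-Glo luminescence relative to the median of 16 inner DMSO wells.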

[2] = system: primary ALL patient cells (S088)
How it was run: as §1

[3] = system: primary AML patient cells (S002)
How it was run: as §1

[4] = system: primary AML patient cells (S009)
How it was run: as §1

[5] = system: primary AML patient cells (S017)
How it was run: as §1

[6] = system: primary AML patient cells (S019)
How it was run: as §1

[7] = system: primary AML patient cells (S021)
How it was run: as §1

[8] = system: primary AML patient cells (S025)
How it was run: as §1

[9] = system: primary AML patient cells (S055)
How it was run: as §1

[10] = system: primary AML patient cells (S060)
How it was run: as §1

[11] = system: primary AML patient cells (S071)
How it was run: as §1

[12] = system: primary AML patient cells (S072)
How it was run: as §1

[13] = system: primary AML patient cells (S079)
How it was run: as §1

[14] = system: primary AML patient cells (S089)
How it was run: as §1

[15] = system: primary AML patient cells (S091)
How it was run: as §1

[16] = system: primary B-PLL patient cells (S016)
How it was run: as §1

[17] = system: primary DLBCL patient cells (S082)
How it was run: as §1

[18] = system: primary FL patient cells (S022)
How it was run: as §1

[19] = system: primary FL patient cells (S087)
How it was run: as §1

[20] = system: primary MCL patient cells (S053)
How it was run: as §1

With `N#Cc1ccnc(N2C(=O)CC[C@H]2C(=O)N(c2cncc(F)c2)[C@H](C(=O)NC2CC(F)(F)C2)c2ccccc2Cl)c1` [AG-120] the viability ([1]; 0.024 µM) was 0.828, the viability ([1]; 0.12 µM) was 0.865 and the viability ([1]; 0.6 µM) was 0.735. For the same molecule, the viability ([1]; 3 µM) was 1.01, the viability ([1]; 15 µM) was 0.745 and the viability ([2]; 0.024 µM) was 0.727. It also gave a viability ([2]; 0.12 µM) of 0.745, a viability ([2]; 0.6 µM) of 0.533 and a viability ([2]; 3 µM) of 0.7. It also gave a viability ([2]; 15 µM) of 0.499, a viability ([3]; 0.024 µM) of 0.901 and a viability ([3]; 0.12 µM) of 0.897. For the same molecule, the viability ([3]; 0.6 µM) was 0.849, the viability ([3]; 3 µM) was 0.951 and the viability ([3]; 15 µM) was 0.766. It also gave a viability ([4]; 0.024 µM) of 0.974, a viability ([4]; 0.12 µM) of 0.96 and a viability ([4]; 0.6 µM) of 1.04. The viability ([4]; 3 µM) was 0.943, the viability ([4]; 15 µM) was 0.915 and the viability ([5]; 0.024 µM) was 1.04. For the same molecule, the viability ([5]; 0.12 µM) was 0.988, the viability ([5]; 0.6 µM) was 1.16 and the viability ([5]; 3 µM) was 1.02. For the same molecule, the viability ([5]; 15 µM) was 0.908, the viability ([6]; 0.024 µM) was 1.43 and the viability ([6]; 0.12 µM) was 1.43. For the same molecule, the viability ([6]; 0.6 µM) was 0.934, the viability ([6]; 3 µM) was 1.34 and the viability ([6]; 15 µM) was 0.833. The viability ([7]; 0.024 µM) was 0.985, the viability ([7]; 0.12 µM) was 0.875 and the viability ([7]; 0.6 µM) was 0.743. It also gave a viability ([7]; 3 µM) of 0.761, a viability ([7]; 15 µM) of 0.692 and a viability ([8]; 0.024 µM) of 1.04. For the same molecule, the viability ([8]; 0.12 µM) was 1.06, the viability ([8]; 0.6 µM) was 0.85 and the viability ([8]; 3 µM) was 0.934. It also gave a viability ([8]; 15 µM) of 0.826, a viability ([9]; 0.024 µM) of 1.11 and a viability ([9]; 0.12 µM) of 1.13. For the same molecule, the viability ([9]; 0.6 µM) was 1.01, the viability ([9]; 3 µM) was 1.09 and the viability ([9]; 15 µM) was 0.964. For the same molecule, the viability ([10]; 0.024 µM) was 1.05, the viability ([10]; 0.12 µM) was 1.1 and the viability ([10]; 0.6 µM) was 0.937. The viability ([10]; 3 µM) was 1.16, the viability ([10]; 15 µM) was 0.938 and the viability ([11]; 0.024 µM) was 1.03. It also gave a viability ([11]; 0.12 µM) of 1.05, a viability ([11]; 0.6 µM) of 0.922 and a viability ([11]; 3 µM) of 0.919. For the same molecule, the viability ([11]; 15 µM) was 0.751, the viability ([12]; 0.024 µM) was 0.983 and the viability ([12]; 0.12 µM) was 1.1. It also gave a viability ([12]; 0.6 µM) of 0.87, a viability ([12]; 3 µM) of 0.919 and a viability ([12]; 15 µM) of 0.799. It also gave a viability ([13]; 0.024 µM) of 0.978, a viability ([13]; 0.12 µM) of 0.983 and a viability ([13]; 0.6 µM) of 0.879. It also gave a viability ([13]; 3 µM) of 0.959, a viability ([13]; 15 µM) of 0.844 and a viability ([14]; 0.024 µM) of 0.664. For the same molecule, the viability ([14]; 0.12 µM) was 0.916, the viability ([14]; 0.6 µM) was 0.818 and the viability ([14]; 3 µM) was 0.903. The viability ([14]; 15 µM) was 0.827, the viability ([15]; 0.024 µM) was 1.02 and the viability ([15]; 0.12 µM) was 0.975. The viability ([15]; 0.6 µM) was 1.03, the viability ([15]; 3 µM) was 1.56 and the viability ([15]; 15 µM) was 1.03. The viability ([16]; 0.024 µM) was 1.16, the viability ([16]; 0.12 µM) was 1.18 and the viability ([16]; 0.6 µM) was 1. It also gave a viability ([16]; 3 µM) of 1.12, a viability ([16]; 15 µM) of 0.86 and a viability ([17]; 0.024 µM) of 1.03. For the same molecule, the viability ([17]; 0.12 µM) was 1.06, the viability ([17]; 0.6 µM) was 0.895 and the viability ([17]; 3 µM) was 1.05. The viability ([17]; 15 µM) was 0.935, the viability ([18]; 0.024 µM) was 0.858 and the viability ([18]; 0.12 µM) was 0.833. For the same molecule, the viability ([18]; 0.6 µM) was 0.838, the viability ([18]; 3 µM) was 0.905 and the viability ([18]; 15 µM) was 0.777. For the same molecule, the viability ([19]; 0.024 µM) was 0.946, the viability ([19]; 0.12 µM) was 0.984 and the viability ([19]; 0.6 µM) was 0.911. For the same molecule, the viability ([19]; 3 µM) was 1.01, the viability ([19]; 15 µM) was 0.892 and the viability ([20]; 0.024 µM) was 0.945. For the same molecule, the viability ([20]; 0.12 µM) was 0.911, the viability ([20]; 0.6 µM) was 0.593 and the viability ([20]; 3 µM) was 0.887. For the same molecule, the viability ([20]; 15 µM) was 0.641.

From the supplement of paper PMC10733146
